Assay results taken from patent US6531499B2, “Matrix metalloproteinase inhibitors and method of using same” (Wisconsin Alumni Research Foundation, priority 1999, dated 2003).

Key:
F442A fibroblast = format: cell-based; details: concentrations up to 100 μM; 6 to 24 hours in serum-free medium
Procedure: Toxicity of the compounds was determined by incubating several log doses of the compound and solvent controls for 6 to 24 hours in serum-free medium. The cell number was then determined by comparing the absorbance of crystal violet with controls, and cell death determined by trypan blue dye exclusion in conventional and well known fashion. The model cell line used was a murine fibroblast cell line designated F442A, which was generously provided by Dr. Howard Green of Harvard University.
The compounds were cleaved from the beads into a single solution and tested in this combined fashion.

MMP-2 = target: T1, MMP-2 (Homo sapiens, UniProt P08253); assay: Colorimetric 96-well thiopeptolide collagenase assay; format: biochemical; details: change in absorbance at 405 nm
T1 sequence (P08253 110-660): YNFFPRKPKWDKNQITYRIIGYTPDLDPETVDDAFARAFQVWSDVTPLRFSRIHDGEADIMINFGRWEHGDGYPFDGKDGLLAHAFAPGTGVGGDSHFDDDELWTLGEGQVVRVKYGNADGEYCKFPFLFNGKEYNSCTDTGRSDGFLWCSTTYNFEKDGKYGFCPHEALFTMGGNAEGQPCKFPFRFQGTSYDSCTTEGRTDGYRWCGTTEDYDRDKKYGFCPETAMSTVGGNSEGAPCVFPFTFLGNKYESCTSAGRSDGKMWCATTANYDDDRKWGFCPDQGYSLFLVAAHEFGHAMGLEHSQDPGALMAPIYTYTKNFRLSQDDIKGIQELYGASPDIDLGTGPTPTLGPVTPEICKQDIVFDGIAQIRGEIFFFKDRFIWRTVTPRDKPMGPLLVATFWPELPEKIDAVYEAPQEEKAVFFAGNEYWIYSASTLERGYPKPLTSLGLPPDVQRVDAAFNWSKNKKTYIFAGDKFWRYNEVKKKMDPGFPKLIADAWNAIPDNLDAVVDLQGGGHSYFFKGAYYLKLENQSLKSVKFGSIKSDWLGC
Procedure: The preferred assay method to measure MMP inhibitory activity is a colorimetric assay which can be monitored spectrophotometrically. Specifically, the ability of the subject matrix metalloproteinase inhibitors to suppress MMP-2 or MMP-9 activity is assessed using a colorimetric 96-well thiopeptolide collagenase assay as described by Xia et al. (Xia T, Akers K, Eisen A Z and Seltzer J L. (1996) Biochim et Biophy Acta. 1293:259). This protocol entails the cleavage of a thiopeptolide substrate AcProLeuGly-S-LeuGlyOC2H5 (Bachem Bioscience, Cat # H7145) by MMP-2 or MMP-9, giving a free sulfhydryl group. The free —SH then reacts with DTNB (Ellman's reagent, 5,5′-dithio-bis(2-nitrobenzoic acid)) giving a colored molecule whose formation can be examined spectrophotometrically at 405 nm.
The thiopeptolide substrate (5 μL/well, 5 mM in DMF), DTNB (15 μL/well, 10 mM in 50 mM HEPES, 10 mM CaCl2, pH 6.92), and matrix metalloproteinase inhibitors or DMSO (total volume equal to 5 μL/well) are mixed in a 96-well plate (Falcon). A single row of wells is used for each matrix metalloproteinase inhibitor and various inhibitor concentrations are used to control for row to row variation in collagenase activity. The reaction is then initiated by pipeting 130 μL of a solution of collagenase buffer (126 μL/well, 50 mM HEPES, 10 mM CaCl2, pH 6.92) and activated MMP-2 or MMP-9 (4 μL/well, 0.05 M borate, pH 7.46, 5 mM CaCl2 , 20% glycerol, 0.0005% Brij-35) into a row of wells using a 12-channel multipipeter. The change in absorbance from 0-20 minutes is then monitored at 405 nm using an ELX 800 automated microplate reader (Bio-Tek Instruments, Inc., Winooski, Vt.). The change in absorbance is calculated and graphed.
The thiopeptolide substrate AcProLeuGly-S-LeuGlyOC2H5 (5 μL/well, 5 mM in DMF), DTNB (15 μL/well, 10 mM in 50 mM HEPES, 10 mM CaCl2, pH 6.92), and matrix metalloproteinase inhibitors or DMSO (total volume equal to 5 μL/well) were mixed in a 96-well plate. A single row of wells was used for each concentration of the test compound and concentrations of 10, 20, and 40 μM of the test compound were used. The reaction was then initiated by pipeting 130 μL of a solution of collagenase buffer (126 μL/well, 50 mM HEPES, 10 mM CaCl2, pH 6.92) and activated MMP-2 (4 μL/well, 0.05 M borate, pH 7.46, 5 mM CaCl2, 20% glycerol, 0.0005% Brij-35) into a row of wells using a 12-channel multipipeter. The change in absorbance from 0-20 minutes was then monitored at 405 nm. The change in absorbance was calculated and graphed; the results are depicted in FIG. 4.

HiMel cells = assay: In vitro invasion assay: HiMel cell penetration of […] (Transwell); format: cell-based, human; details: same assay as Example 3; concentration not given
Source text: An 8 μm pore filter coated with “[…]” separates a series of lower compartments containing a chemoattractant and a corresponding series of upper compartments containing metastatic and non-metastatic cells and a compound to be tested. The metastatic cells are able to degrade the “[…]” barrier and, over a period of time, migrate through the pores of the filter whereas non-metastatic cells remain on the upper surface. The cells that pass to the underside of the filter are counted under a microscope to determine the extent to which they are able to pass from the upper compartment into the lower compartment. […]
This method has been refined to increase the number of assays which may be performed and analyzed per day. […] Motility of the cells through the 8 μm filters is not by passive diffusion since the pore size is smaller than the cells, and is determined in the same chamber in the absence of “[…]”. […]
Compounds to be tested were dissolved in DMSO and were added in serial dilutions of 0 (control) 1, and 10 μM. […] Invasive cells found on the under side of the filter were measured by solubilizing the stain in 10% acetic acid 20% methanol and reading the absorbance at 595 nm.

[1] = 0 (control), 40, 80, and 160 μM

Structure (SMILES)	effect on the growth / viability of fibroblasts (F442A fibroblast)	inhibition of MMP-2 collagenase activity (MMP-2; [1])	inhibition of HiMel MATRIGEL invasion as compared to the control (HiMel cells)	inhibition of MMP-2 collagenase activity (MMP-2; 10, 20, and 40 μM, 0-20 minutes)
O=C(CN(CCCCc1ccccc1)C(=O)CN(CCCc1ccccc1)C(=O)Nc1ccc(Oc2ccccc2)cc1)NO	no significant effect	inhibits MMP-2 collagenase activity in a dose-dependent fashion	–	–
O=C(CN(Cc1ccccc1)C(=O)CN(CCCc1ccccc1)C(=O)Nc1ccc(Oc2ccccc2)cc1)NO	no significant effect	–	approximately 50%	inhibited MMP-2 collagenase activity in a dose-dependent manner
O=C(Nc1ccc(Oc2ccccc2)cc1)Nc1ccc(-c2ccccc2)cc1	–	inhibits MMP-2 collagenase activity in a dose-dependent fashion	approximately 50%	–
NC(=O)CN(Cc1ccccc1)C(=O)CN(CCCc1ccccc1)C(=O)Nc1ccc(Oc2ccccc2)cc1	–	inhibits MMP-2 collagenase activity in a dose-dependent fashion	–	–
O=C(Nc1ccc(Oc2ccccc2)cc1)Nc1ccc(Oc2ccccc2)cc1	–	inhibits MMP-2 collagenase activity in a dose-dependent fashion	–	–
